In PubChem BioAssay (NCI):
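The compound was tested at five concentrations on cells cultured in 96-well plates, with a 48-hour exposure period. The concentration for full growth arrest is given as TGI.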 Where a SMILES comes first, the peptide text is derived from it. [ ]: non-standard residue; d: D form. The star is where a group is joined. ξ: configuration not given here. NMeF = CN[CH](Cc1ccccc1)C(=O)O; ξNMe2Val = CC(C)C(C(=O)*)N(C)C; NMeV = CN[CH](C(=O)O)C(C)C; ξNMeV = CNC(C(=O)O)C(C)C; Boc = CC(C)(C)OC(=O)*; OBn = c1ccc(CO*)cc1; OtBu = CC(C)(C)O*

Key:
Assay in all cases: NCI-60 cell line screen, 48 h
[1] = tested on: IGROV1 ovarian
[2] = tested on: HCT-116 colon
[3] = tested on: HL-60(TB) leukemia
[4] = tested on: K-562 leukemia
[5] = tested on: U251 CNS
[6] = tested on: COLO 205 colon
[7] = tested on: CAKI-1 renal
[8] = tested on: SNB-19 CNS
[9] = tested on: SF-268 CNS
[10] = tested on: SF-539 CNS
[11] = tested on: 786-0 renal
[12] = tested on: EKVX NSCLC
[13] = tested on: OVCAR-8 ovarian
[14] = tested on: MALME-3M melanoma
[15] = tested on: A549 NSCLC
[16] = tested on: HT29 colon
[17] = tested on: ACHN renal
[18] = tested on: LOX IMVI melanoma
[19] = tested on: HS 578T breast
[20] = tested on: MDA-MB-231 breast

SMILES	TGI [1] [µM]	TGI [2] [µM]	TGI [3] [µM]	TGI [4] [µM]	TGI [5] [µM]	TGI [6] [µM]	TGI [7] [µM]	TGI [8] [µM]	TGI [9] [µM]	TGI [10] [µM]	TGI [11] [µM]	TGI [12] [µM]	TGI [13] [µM]	TGI [14] [µM]	TGI [15] [µM]	TGI [16] [µM]	TGI [17] [µM]	TGI [18] [µM]	TGI [19] [µM]	TGI [20] [µM]
Cc1nn2c(c1C#N)NNc1c-2sc(=N)nnc1=O	> 100	> 100	> 100	> 100	> 100	> 100	> 100	> 100	> 100	> 100	> 100	> 100	> 100	> 100	> 100	> 100				
CCCCOC(=O)NC(=O)c1cn(CCCOC(=O)CCCCCCCCC(=O)OCCCn2cc(C(=O)NC(=O)OCCCC)c(=O)n(C)c2=O)c(=O)n(C)c1=O	> 100	> 100	> 100	> 100	> 100	> 100	> 100	> 100	> 100	> 100	> 100	> 100	> 100	> 100	> 100	> 100	> 100			
CC(C)C(C(=O)N(C)C(Cc1ccccc1)C(=O)N(C)C(C(=O)N(C)C(C(=O)N1CCCC1C(=O)OC(C)(C)C)C(C)C)C(C)C)N(C)C (stereo not drawn) (ξNMe2Val-[NMeF][NMeV][NMeV]P-OtBu; configuration not given here)	> 100	> 100	94.7	> 100		> 100		> 100	> 100	> 100	> 100	> 100	> 100		> 100	> 100	> 100	55.5		
CC#CCCCC1(C)CCNC1=S (stereo not drawn)			> 10	> 10	> 10			> 10	> 10	> 10	> 10	> 10	> 10	> 10	> 10	> 10	> 10	> 10	> 10	
NC1=Nc2ccccc2Sc2cccc(F)c21	> 100	> 100	88	> 100	> 100	> 100	> 100	> 100	> 100	> 100	> 100	> 100	> 100	> 100	> 100	> 100	> 100	> 100		> 100
Cc1ccc(NC(=O)C2C3CCC(O3)C2C(=O)O)cc1 (stereo not drawn)	> 100	> 54.7	> 60.6	> 77.6	> 100	> 59.8	> 100	> 100	> 73.2	> 100	> 56.1	> 100	> 100	> 100	> 100	> 64.2	> 100	> 54.8		
CSC(C1c2ccccc2N(C)c2[nH]c(=O)n(C)c(=O)c21)S(=O)(=O)c1ccc(C)cc1 (stereo not drawn)	> 100	> 100	> 100	> 100	> 100	> 100	> 100	> 100	> 100	> 100	> 100	> 100	> 100	> 100	> 100	> 100		> 100		
Cc1ccnc(Nc2[nH]c(C(=O)c3ccc(Cl)cc3)c(N)c2C(=S)Nc2ccccc2)c1	30.9	30	64.6	52.4	33.2	29.9	> 100	64.1	59.8	26.6	34.8	44.6	34.5	29.6	53	28.6	55.8	28.3		31.6
CCCCCCCCCCCC[N+]12CC[N+](C)(CC1)CC2	11.8	> 100	40.4	53.2	29.9	16.9	30.9	38.7	53.3	> 100	26.8	> 100	> 100	> 100	> 100	51.4	> 100	43		
Brc1ccc(-c2cc3c(cc2C2SCCS2)OCO3)cc1	> 100	> 100	> 100	> 100	> 100	> 100		> 100	> 100	39.1	> 100	75.1	> 100	> 100	> 100	> 100	> 100	> 100		
O=C(NC1=C(Cl)C(=O)c2ccccc2C1=O)C(=O)C(C(=O)c1ccc2ccccc2c1)C1OC(=O)c2ccccc21 (stereo not drawn)	27	10.5	7.6	25.6	18.5	18.5	23.2	19	29.6	9.66	20.6	24.7	24.5	4.16	17.5	17.7	21.1	11.2	45.2	
CC(C)C(C(=O)N(C)[C@H](C(=O)N1CCC[C@H]1C(=O)N(C)[C@@H](Cc1ccccc1)C(=O)OCc1ccccc1)C(C)C)N(C)C(=O)[C@@H](NC(=O)OC(C)(C)C)C(C)C (stereo partly drawn) (Boc-V[ξNMeV][NMeV]P[NMeF]-OBn)	> 31.6	> 31.6	8.25	12.6	> 31.6	35.2	> 31.6	> 31.6	> 31.6	> 31.6	> 71.3	> 31.6	> 31.6	> 100	> 31.6	> 31.6	> 100	> 31.6		
CN(C)CCC[N+]1=Nc2cccc3cccc(c23)N1	> 100	> 100	47.5	> 100	> 100		> 100	> 100	> 100	> 100	> 100	> 100	> 100	> 100	> 100	> 100	> 100	> 100		
COC(=O)C(CCC1(C)OCCO1)=[N+]=[N-]	> 100	> 100	> 100	> 100	> 100	> 100		> 100	> 100	> 100	> 100	> 100	> 100	> 100	> 100	> 100	> 100	> 100		
N#COc1ccc(Oc2ccc(OC#N)cc2)cc1	> 100	> 100	> 100	> 100	> 100	54	> 100	> 100	> 100	> 100	> 100	> 100	> 100	> 100	> 100	> 100	> 100	33.9		
CCCCCCCCCCCCCS(=O)(=O)NCC(N)=O	> 100	> 100	> 100		> 100	> 100		> 100	> 100	> 100	> 100	> 100	> 100	> 100	> 100	> 100	> 100	> 100		
COc1ccc(C2=Nc3ccccc3N=C(SC)C2)cc1	> 100	> 100	43	53.2	> 100	> 100	> 100	> 100	> 100	> 100	> 100	> 100	> 100	> 100	> 100	> 100	> 100	34.6		
CC12CCc3ccccc3C1=NNC(=O)C2 (stereo not drawn)	> 100	> 100	> 100	> 100	> 100	> 100	> 100	> 100	> 100	> 100	> 100	> 100	> 100	> 100	> 100	> 100	> 100	> 100		
CC(=O)OCC1OC(n2c(=S)n(-c3ccccc3)c(=O)c3cc(Br)ccc32)C(OC(C)=O)C1OC(C)=O (stereo not drawn)	> 100	> 100			> 100	> 100	> 100	> 100	> 100	> 100	> 100	> 100	> 100	> 100	> 100	> 100	> 100	> 100		
CCO/C(O)=c1/s/c(=C(\C#N)c2nc3ccccc3[nH]2)n(-c2ccccc2)c1=N	> 100	> 100	> 100	> 100	> 100	> 100	> 100	> 100	> 100	> 100	> 100	> 100	> 100	> 100	> 100	> 100	> 100	> 100		
CSc1nc(NCc2ccccc2)c2cnn(COCCO)c2n1	> 100	> 100	> 100	> 100	> 100	85.7	> 100		> 100	> 100	> 100	63.5	> 100	> 100	> 100	> 100	62.1	> 100		> 100
CC(C)(C)OC(=O)N1N=CCC1c1ccccc1 (stereo not drawn)	> 100	> 100	> 100	> 100		> 100	> 100		> 100	> 100	> 100	> 100	> 100		> 100	> 100	> 100	> 100	> 100	
O=C1Nc2ccc(Cl)c(I)c2C1=O	30.9	28.8	41.3	65.5	31.2	35.1	37.9	80.5	32.6		36.8	20.8	38.1	34.8	> 100	75.9	30.7	35.1		
CCN(C(=O)N[C@H](C(=O)N[C@@H](CSC)C(=O)N[C@@H](C)C(=O)OC)C(C)C)c1ccccc1	23.9	30.9		> 100	29.4	32.4	36.3	33.4		39.2	34.2	28.7	38.2	26.6	55	27.2	28.9	23.5		29
CC#COS(=O)(=O)c1ccc(C)cc1	> 100	> 100	59.8	> 100	> 100	> 100	> 100	> 100	> 100	> 100	> 100	> 100	> 100	> 100	> 100	> 100	> 100	> 100		
COc1ccc([C@H]2CC3C(=O)N(c4ccc(OC)cc4)C(=O)C3c3[nH]c4ccccc4c32)cc1 (stereo partly drawn)	> 100	> 100		> 100	> 100	> 100	> 100	> 100	> 100	51.6	47.7	> 100	> 100	> 100	> 100		> 100	> 100		
